Earlier results on 11 compounds are cited in Sander's compilation of Henry's law constants (doi:10.1002/etc.5620190905).

The nature of this series: Henry solubility constant Hcp at 298.15 K (mol/(m3 Pa)). As to conditions: reference: Armbrust (2000); cited value.
For `N#Cc1c(Cl)c(Cl)c(Cl)c(C#N)c1Cl` [2,4,5,6-tetrachloro-1,3-dicyanobenzene], the “Henry solubility constant Hcp” value was 45.
Take `O=C(O)COc1ccc(Cl)cc1Cl` [(2,4-dichlorophenoxy)-ethanoic acid]: the “Henry solubility constant Hcp” value is 5.5e+06.
As to `CCN(CC)C(=O)SCc1ccc(Cl)cc1` [S-(4-chlorobenzyl) diethylthiocarbamate], the “Henry solubility constant Hcp” value was 37.
Consider `O=C(O)COc1nc(Cl)c(Cl)cc1Cl` [[(3,5,6-trichloro-2-pyridinyl)oxy]-acetic acid], for which the “Henry solubility constant Hcp” value is 12000.
On to `COC(=O)c1ccccc1CS(=O)(=O)NC(=O)Nc1nc(OC)cc(OC)n1` [bensulfuron methyl], for which the “Henry solubility constant Hcp” value was 7e+10.
Take `CCOP(=S)(OCC)Oc1nc(Cl)c(Cl)cc1Cl` [chlorpyrifos]: the “Henry solubility constant Hcp” value is 1.4.
As for `COc1nc(C)nc(NC(=O)NS(=O)(=O)c2ccccc2Cl)n1` [chlorsulfuron], the “Henry solubility constant Hcp” value was 150000.
For the compound `COc1c(Cl)ccc(Cl)c1C(=O)O` [dicamba], the “Henry solubility constant Hcp” value was 22000.
Regarding `O=[N+]([O-])/N=C1\NCCN1Cc1ccc(Cl)nc1` [imidacloprid], the “Henry solubility constant Hcp” value was 4.9e+09.
As for `CC(C)Oc1cc(-n2nc(C(C)(C)C)oc2=O)c(Cl)cc1Cl` [oxadiazon], the “Henry solubility constant Hcp” value is 140.
In the case of `COC(=O)c1ccccc1S(=O)(=O)NC(=O)Nc1nc(C)cc(C)n1` [sulfometuron methyl], the “Henry solubility constant Hcp” value is 8.2e+12.
